From ChEMBL document CHEMBL1687781, “Comparative biochemical and computational study of the role of naturally occurring mutations at Ambler positions 104 and 170 in GES β-lactamases” (Antimicrob Agents Chemother, 2010)

Experiment: Inhibition of Beta-lactamase GES-1 E104, G170 mutant preincubated for 5 mins before substrate addition using cephalothin substrate by spectrophotometry
Compound `CC1(C)[C@H](C(=O)O)N2C(=O)C[C@H]2S1(=O)=O` [SULBACTAM] has an IC50 of 1500 nM.
`C[C@]1(Cn2ccnn2)[C@H](C(=O)O)N2C(=O)C[C@H]2S1(=O)=O` [TAZOBACTAM] gave an IC50 of 30 nM.
`O=C(O)[C@H]1/C(=C/CO)O[C@@H]2CC(=O)N21` [CLAVULANIC ACID] gave an IC50 of 100 nM.

Experiment: Inhibition of Beta-lactamase GES-7 K104, G170 mutant preincubated for 5 mins before substrate addition using cephalothin substrate by spectrophotometry
For `C[C@]1(Cn2ccnn2)[C@H](C(=O)O)N2C(=O)C[C@H]2S1(=O)=O` [TAZOBACTAM], the IC50 was 60 nM.
For `O=C(O)[C@H]1/C(=C/CO)O[C@@H]2CC(=O)N21` [CLAVULANIC ACID], the IC50 was 800 nM.

Experiment: Inhibition of Beta-lactamase GES-2 E104, N170 mutant preincubated for 5 mins before substrate addition using cephalothin substrate by spectrophotometry
For `CC1(C)[C@H](C(=O)O)N2C(=O)C[C@H]2S1(=O)=O` [SULBACTAM], the IC50 was 500 nM.
For `C[C@]1(Cn2ccnn2)[C@H](C(=O)O)N2C(=O)C[C@H]2S1(=O)=O` [TAZOBACTAM], the IC50 was 30 nM.
`O=C(O)[C@H]1/C(=C/CO)O[C@@H]2CC(=O)N21` [CLAVULANIC ACID] gave an IC50 of 80 nM.

Experiment: Inhibition of Beta-lactamase GES-5 E104, S170 mutant preincubated for 5 mins before substrate addition using cephalothin substrate by spectrophotometry
For `CC1(C)[C@H](C(=O)O)N2C(=O)C[C@H]2S1(=O)=O` [SULBACTAM], the IC50 was 4500 nM.
With `C[C@]1(Cn2ccnn2)[C@H](C(=O)O)N2C(=O)C[C@H]2S1(=O)=O` [TAZOBACTAM] the IC50 was 500 nM.
Work on `O=C(O)[C@H]1/C(=C/CO)O[C@@H]2CC(=O)N21` [CLAVULANIC ACID] yielded an IC50 of 500 nM.

Experiment: Inhibition of Beta-lactamase GES-6 K104, S170 mutant preincubated for 5 mins before substrate addition using cephalothin substrate by spectrophotometry
In the case of `CC1(C)[C@H](C(=O)O)N2C(=O)C[C@H]2S1(=O)=O` [SULBACTAM], the IC50 is reported as 8000 nM.
Compound `C[C@]1(Cn2ccnn2)[C@H](C(=O)O)N2C(=O)C[C@H]2S1(=O)=O` [TAZOBACTAM] has an IC50 of 500 nM.
Compound `O=C(O)[C@H]1/C(=C/CO)O[C@@H]2CC(=O)N21` [CLAVULANIC ACID] has an IC50 of 1700 nM.

Experiment: Inhibition of Beta-lactamase GES-13 K104, N170 mutant preincubated for 5 mins before substrate addition using cephalothin substrate by spectrophotometry
For `CC1(C)[C@H](C(=O)O)N2C(=O)C[C@H]2S1(=O)=O` [SULBACTAM], the IC50 was 300 nM.
In the case of `C[C@]1(Cn2ccnn2)[C@H](C(=O)O)N2C(=O)C[C@H]2S1(=O)=O` [TAZOBACTAM], the IC50 is reported as 40 nM.
Work on `O=C(O)[C@H]1/C(=C/CO)O[C@@H]2CC(=O)N21` [CLAVULANIC ACID] yielded an IC50 of 90 nM.
